Measurements reported in patent US20100075907A1, “NEUROMEDIN U RECEPTOR AGONISTS AND USES THEREOF” (priority 2006, published 2010).
Non-standard residues stand in square brackets, D forms with d. Residues, ends and D or L forms follow the SMILES beside them. *: point of attachment. Succinimide(1-Et,3-yl) = CCN1C(=O)CC(*)C1=O

How the values were obtained:
hNMUR2 [1] = biological target: T1, hNMUR2 (Homo sapiens, UniProt Q9GZQ4); experiment: 125I-hNMU-25 binding assay, human NMUR2 membranes; set-up: expressed in transfected cells; host or cells: HEK-293 FLP-In cells (pcDNA5); HEK-293/aeq17 lines (pcDNA3.1) were also made; % inhibition of NMU-25 binding / % Activity: concentration or dose not given beside the values; details: for IC50: binding; for IC50 / % inhibition of NMU-25 binding: human R2
T1 sequence (Q9GZQ4 whole entry): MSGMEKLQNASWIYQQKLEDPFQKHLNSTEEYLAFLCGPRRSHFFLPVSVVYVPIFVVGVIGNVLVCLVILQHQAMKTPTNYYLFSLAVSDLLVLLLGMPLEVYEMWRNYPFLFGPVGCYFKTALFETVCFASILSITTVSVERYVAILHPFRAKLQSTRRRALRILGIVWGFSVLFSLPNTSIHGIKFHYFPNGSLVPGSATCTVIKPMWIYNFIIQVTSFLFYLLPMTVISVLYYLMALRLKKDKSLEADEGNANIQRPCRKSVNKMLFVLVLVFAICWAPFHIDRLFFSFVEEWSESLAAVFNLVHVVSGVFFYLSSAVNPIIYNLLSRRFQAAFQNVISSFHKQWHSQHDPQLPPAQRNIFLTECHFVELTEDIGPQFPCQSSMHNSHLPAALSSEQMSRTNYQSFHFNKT
Method: Confluent cell monolayers expressing NMU receptors (the HEK cells described above) were harvested with phosphate buffered saline, collected by centrifugation, and resuspended in membrane buffer (50 mM TrisCl pH 7.4, 5 mM MgCl2, 1× Protease Inhibitor Cocktail, 10 μM phosphoramidon). After the cell pellet was homogenized, the solution was centrifuged at 18,000 rpm for 20 minutes at 4° C. The pellet was resuspended in membrane buffer to yield a final concentration of 0.5-5 μg/μL of membrane and stored at −80° C.
Experiments were performed in assay buffer (25 mM TrisCl, pH 7.4, 10 mM MgCl2, 2 mM EDTA, 1× Protease Inhibitor Cocktail, 100 μg/mL Bacitricin, 10 μM phosphoramidon) in 200 μL volumes in a 96-well format using 2-5 μg of membrane and 0.1 nM ^125I-hNMU-25 (about 12,000 cpm/well). For non-specific binding, 1 μM hNMU-25 was added. About 5 μL of peptides were added to measure antagonist activity, and the entire reaction was incubated at room temperature with shaking for 80 minutes. The reaction was terminated by rapid filtration through 0.3% poly-ethylenimine presoaked Millipore 96-well filter plates and washed with ice-cold buffer (5 mM TrisCl pH 7.4, 10 mM MgCl2, 2.5 mM EDTA, 0.04% Triton X-100). Plates were air-dried overnight at room temperature and recovered radioactivity was determined by standard scintillation counting. IC50 values were determined using GraphPad Prism software.
Concentration-response curves and radioligand-binding data were fitted using Prism (GraphPad Software). Results are summarized below in Tables 8 and 9.

mouse NMUR2 = mouse NMUR2 (Mus musculus, UniProt Q8BZ39); experiment: FLIPR calcium mobilization assay, mouse NMUR2; format: cell-based; set-up: expressed in transfected cells; host or cells: FLP-In CHO or HEK-293 FLP-In cells (pcDNA5); details: for IC50: functional data, mouse R2
mouse NMUR2, sequence (Q8BZ39 whole entry): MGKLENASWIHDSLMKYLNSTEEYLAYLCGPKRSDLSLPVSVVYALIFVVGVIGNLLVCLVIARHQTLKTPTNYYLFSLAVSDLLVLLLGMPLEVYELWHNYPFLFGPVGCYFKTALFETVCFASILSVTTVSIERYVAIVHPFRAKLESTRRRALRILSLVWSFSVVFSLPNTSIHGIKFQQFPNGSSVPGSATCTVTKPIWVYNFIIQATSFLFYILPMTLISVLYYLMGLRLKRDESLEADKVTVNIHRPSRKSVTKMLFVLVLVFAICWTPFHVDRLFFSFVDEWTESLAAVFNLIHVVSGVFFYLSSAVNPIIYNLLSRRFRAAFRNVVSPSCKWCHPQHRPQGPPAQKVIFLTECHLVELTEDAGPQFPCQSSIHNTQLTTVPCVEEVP
Excerpt: (§1) Human, mouse or rat cDNAs encoding NMUR1 or NMUR2 (as described in Howard et al. Nature 406: 70-74 (2000) were subcloned in pcDNA5 (Invitrogen) and transfected into FLP-In CHO cells and HEK-293 FLP-In cells purchased from Invitrogen (Carlsbad, Calif.) using lipofectamine (Invitrogen). The Flp-In system allows integration and expression of a particular gene of interest at a specific genomic location utilizing the Flp recombinase from yeast. The transfected cells were selected by growth in medium containing 200 μg/mL hygromycin (Invitrogen). Populations were frozen at early passage numbers, and these stocks were used for further studies. Stable clones that expressed the mRNAs were identified functionally by FLIPR as well as by RT-PCR. […] Two different rodent NMUR1 cell lines were thus generated: one with the codon as predicted from the genomic databases and another cell line with an engineered methionine (ATG) as the start codon. Additionally, stable cell lines expressing the human receptors were generated in HEK-293/aeq17 cells which stably express the aequorin gene under the CMV promoter. The human NMUR2 cDNA was cloned into pcDNA3.1 and human NMUR1 was subcloned into pIRES-puro (Clontech, Mountain View, Calif.), after transfection cells were selected in media containing G418 and either hygromycin (NMUR2) or puromycin (NMUR1).
(§2) The NMU receptors signal primarily through Gαq/11 proteins; therefore calcium mobilization assays can be utilized for functional activity.
(§3) Stable cell lines expressing human and or rodent NMUR1 or human NMUR2 receptors were plated at a density of 12,000 cells per well overnight on poly-lysine coated 384-well black-walled plates. The following day, the media was removed from the plates and the cells were subsequently loaded with Fluo-3 (Molecular Probes), a calcium sensitive dye, diluted in FLIPR buffer (1× Hank's buffered saline containing 20 mM HEPES, 0.1% BSA, 2.5 mM probenecid (Sigma) and 1.6 mM TR40). All reagents are from Invitrogen unless otherwise noted. Peptide stocks were resuspended in DMSO at a stock concentration of 2 mM and diluted in FLIPR buffer on the day of the experiment to a 4 μM working stock solution.
(§4) After a 90 minute incubation at room-temperature, cell plates were loaded onto a FLIPR (Molecular Devices) to monitor cellular fluorescence (excitation=488 nm; emission=540 nm) before and after compound/peptide addition. Eight to twelve point dose responses were tested on NMUR-expressing cell lines using FLIPR with 1 μM peptide as the highest dose. The response after peptide addition was taken as the maximum fluorescence units minus the fluorescence immediately prior to stimulation for each well. EC50 values were calculated using GraphPad Prism (San Diego, Calif.) software.
In vitro responses of Neuromedin U receptor agonists (NMU1 to NMU25) in the FLIPR assay for human (Table 3), mouse (Table 4) and rat (Table 5) NMUR1 and NMUR2. EC50s are reported in nM values. Percent activity refers to the maximum response at 1 μM compared to the hNMU-25 response at the same concentration. NT=not tested.

hNMUR2 [2] = biological target: T1, hNMUR2; experiment: In vitro functional assay, HEK-hR2 cells; format: cell-based; set-up: expressed in transfected cells; host or cells: FLP-In CHO or HEK-293 FLP-In cells (pcDNA5); HEK-293/aeq17 lines (pcDNA3.1) were also made; % Activity: concentration or dose not given beside the values
Excerpt: as §1, §2, §3, §4
In addition to FLIPR, NMU receptor function can also be evaluated using an aequorin assay. Stable cell lines expressing the aequorin jelly fish gene can be used to report the activation of GPCRs by monitoring intracellular calcium mobilization. The objective is to identify compounds which specifically stimulate aequorin bioluminescence. Calcium-dependent luminescence is generated by the treatment of cells with the coelenterate luciferin, coelenterazine. Briefly, confluent monolayers of HEK-293/aeq 17 cells expressing hNMUR1 or hNMUR2 are “charged” with coelenterazine (Molecular Probes, Carlsbad, Calif.). Confluent T75 flasks are rinsed with media containing 300 μM glutathione and 0.1% FBS. Cells are incubated at 37° C. for one hour in 8 mL media, 0.1% FBS, 300 μM glutathione, and 20 μM coelenterazine. T75 flasks are subsequently rinsed with 6 mL ECB buffer (140 mM NaCl, 20 mM KCl, 20 mM HEPES, 5 mM glucose, 1 mM MgCl, 1 mM CaCl2, 0.1 mg/mL BSA, PH 7.3-7.4). Cells are removed from the flask in ECB buffer, pelleted, and resuspended at a density of 2×10^5 cells/mL. Agonists are added to the cells and activity is determined using a luminometer.

[3] = functional, mouse R2, relative to native hNMU responses

Compound	% Activity (hNMUR2 [1]; Table 8, HEK-hR2, binding) [%]	IC50 (hNMUR2 [1]) [nM]	% inhibition of NMU-25 binding (hNMUR2 [1]) [%]	IC50 (mouse NMUR2) [nM]	% Activity (mouse NMUR2; [3]) [%]	% Activity (hNMUR2 [2]; Table 8, HEK-hR2, functional) [%]	IC50 (hNMUR2 [2]; Table 8, HEK-hR2, functional) [nM]	EC50 (mouse NMUR2; FLIPR, mouse NMUR2) [nM]	% Activity (mouse NMUR2; maximum response at 1 μM compared to hNMU-25, mouse NMUR2) [%]	% Activity (hNMUR2 [1]; Table 9, HEK-hR2, binding) [%]	% Activity (hNMUR2 [2]; Table 9, HEK-hR2, functional) [%]	EC50 (hNMUR2 [2]; Table 9, HEK-hR2, functional) [nM]
CC(C)C[C@@H](NC(=O)[C@H](Cc1ccccc1)NC(=O)[C@H](Cc1ccc(O)cc1)NC(=O)CNC(=O)[C@H](CCCNC(=N)N)NC(=O)[C@H](CO)NC(=O)[C@H](CCC(N)=O)NC(=O)[C@H](CO)NC(=O)[C@H](C)NC(=O)[C@H](Cc1ccccc1)NC(=O)[C@@H]1CCCN1C(=O)[C@H](CO)NC(=O)[C@H](CCC(N)=O)NC(=O)[C@H](Cc1ccccc1)NC(=O)[C@H](CCC(=O)O)NC(=O)[C@H](CCC(=O)O)NC(=O)[C@H](CC(=O)O)NC(=O)[C@@H](NC(=O)[C@H](CCCNC(=N)N)NC(=O)[C@@H](N)Cc1ccccc1)C(C)C)C(=O)N[C@@H](Cc1c[nH]c2ccccc12)C(=O)N[C@@H](CCCNC(=N)N)C(=O)N1CCC[C@H]1C(=O)N[C@@H](CCCNC(=N)N)C(=O)N[C@@H](CC(N)=O)C(N)=O [Agonist H] (H-FRVDEEFQSPFASQSRGYF[dL]WRPRN-NH2; N-terminus assumed)	7	782	7	> 1000	40	0	> 1000	–	–	–	–	–
CCN1C(=O)CC(SC[C@H](NC(C)=O)C(=O)N[C@@H](Cc2ccccc2)C(=O)N[C@@H](CCCNC(=N)N)C(=O)N[C@H](C(=O)N[C@@H](CC(=O)O)C(=O)N[C@@H](CCC(=O)O)C(=O)N[C@@H](CCC(=O)O)C(=O)N[C@@H](Cc2ccccc2)C(=O)N[C@@H](CCC(N)=O)C(=O)N[C@@H](CO)C(=O)N2CCC[C@H]2C(=O)N[C@@H](Cc2ccccc2)C(=O)N[C@@H](C)C(=O)N[C@@H](CO)C(=O)N[C@@H](CCC(N)=O)C(=O)N[C@@H](CO)C(=O)N[C@@H](CCCNC(=N)N)C(=O)NCC(=O)N[C@@H](Cc2ccc(O)cc2)C(=O)N[C@@H](Cc2ccccc2)C(=O)N[C@H](C)C(=O)N[C@@H](Cc2c[nH]c3ccccc23)C(=O)N[C@@H](CCCNC(=N)N)C(=O)N2CCC[C@H]2C(=O)N[C@@H](CCCNC(=N)N)C(=O)N[C@@H](CC(N)=O)C(N)=O)C(C)C)C1=O (stereo partly drawn) [NMU13] (Ac-C(Succinimide(1-Et,3-yl))FRVDEEFQSPFASQSRGYF[dA]WRPRN-NH2)	–	> 1000	48	> 1000	27	–	–	> 1000	0.0	–	–	–
H-FRVDEEFQSPFASQSRGYFLFRPRN-NH2 [hNMU-25, reference compound]	–	0.056	–	0.2	–	–	–	–	–	100	100	1.5
